Results from patent US11952603B2, “Method for reducing or inactivating viral and microbial content in the processes for the manufacture of pancreatin” (SCIENTIFIC PROTEIN LABORATORIES, LLC, priority 2015, dated 2024).
Like-named read-outs stand apart in the source and are kept apart here.

Assays:
[1] = tested on: Murine Minute Virus (MMV); experiment: Viral clearance of spiked MMV on PAA-treated glands, TCID50 endpoint assay; assay type: cell-based; conditions: 10,000 ppm PAA, 30 min sample vs Recovery Control 0 minute
viruses = conditions: cited from earlier work
[2] = tested on: aerobic microorganisms (TAMC); experiment: Total Aerobic Microbial Count (TAMC) of porcine pancreas glands after PAA treatment
Experimental: For the preparation of pancreatin, 3 kg thawed whole porcine pancreas glands and 3 kg of porcine pancreas glands cut into approximately 2-inch strips were submerged in two different concentrations of PAA, 500 ppm and 2000 ppm for 10 and 15 minutes at room temperature (18-22° C.). Treated glands were rinsed with process water and placed into a sterile sample bag and stored at −20° C. for freezing not less than 12 hours. A total of 6 samples were tested per run. The preparation was executed 2 times. […] Whole gland (A)—500 ppm; • 2. Whole gland (B)—2000 ppm; • 3. Strip gland (A)—500 ppm; • 4. Strip gland (B)—2000 ppm; • 5. Whole gland (C)—No treatment-Control; • 6. Strip gland (C)—No treatment-Control. For all result see Tables 1 and 2.
The strip glands remained consistent.
For the preparation of pancreatin, 3 kg thawed whole glands and 3 kg of milled gland were submerged in two different concentrations of PAA, 500 ppm and 2000 ppm for 10 and 15 minutes at room temperature (18-22° C.). Treated glands were rinsed with purified water and placed into a sterile sample bag and stored at −20° C. for freezing not less than 12 hours. A total of 6 samples were tested per run. The preparation was executed 2 times. Milled glands were difficult to process due to slurry being formed after PAA treatment. […] Whole gland (A)—500 ppm; • 2. Whole gland (B)—2000 ppm; • 3. Milled gland (A)—500 ppm; • 4. Milled gland (B)—2000 ppm; • 5. Whole gland (C)—No treatment-Control; • 6. Milled gland (C)—No treatment-Control. For all results see table 3 and 4.
The TAMC results for both the whole glands and milled before PAA treatments were similar with 1400 and 1100 CFU/g. After 500 ppm and 2000 ppm PAA treatment, the TAMC results for the treated whole glands were exactly the same, 10 CFU/g. The milled glands were not tested after PAA treatment. See results in table 3.

[3] = tested on: Gram-positive and Gram negative bacteria, fungi and yeasts; conditions: at concentrations of <100 ppm; cited from earlier work
[4] = tested on: Porcine circovirus type 2 (PCV 2); experiment: Infectious PCV-2 titer by cell based in vitro assay using PK-13 cells (Large Volume Plating, interference assay); conditions: 500 and 2000 ppm, endogenous virus
[5] = tested on: Encephalomycarditis Virus (EMC); assay type: cell-based, Encephalomyocarditis virus; conditions: 10,000 ppm PAA
virus = experiment: Transmission electron microscopy of gland tissue and pancreatin powder for virus; conditions: 20,000 ppm PAA for 30 minutes
Experimental: Electron Microscopic Study: Referring to FIGS. 4A-4D, transmission electron microscopy (TEM) and scanning electron microscopy (SEM) were performed to visualize the presence of bacteria and viruses on surface of pancreas gland tissue and pancreatin powder treated with differing concentration of PAA and were compared to non-treated (control) samples.
Pancreas gland tissues treated with PAA and untreated samples as well as resulting pancreatin powder produced with PAA treatment were analyzed with TEM and SEM. For SEM samples were coated with an ultrathin coating of electrically conducting material, deposited on the sample by low-vacuum sputter coating evaporation. A conductive material in current coating used was gold to observe bacteria and viruses. A ZEISS LEO-1530 DSM scanning electron microscope was used to produce the images of FIGS. 4A and 4B. […] (scale bar is 2 μm). […] Viruses are very small in size (15 to 100 nm) and were not possible to observe in SEM. For TEM the pancreas gland tissue and pancreatin powder sample treated with 20,000 ppm PAA for 30 minutes and control samples were stained with 2% uranyl acetate (aq). A Model H-7600 HITACHI transmission electron microscope, Version 3.01, was used to produces the images of FIGS. 4C and 4D. Three TEM slides of each treatment were observed. Each TEM slide had 400 grids to observe. A minimum of 10-15 grids per slide were observed.

vegetative bacteria = conditions: within 1 min at 25° C., 1.3 mmol/L of PAA; cited from earlier work
[6] = Strip Gland, Run # 1, Example 1
[7] = Whole Gland, Run # 1, Example 1
[8] = Whole Gland, Run # 2, Example 1

Compound: CC(=O)OO [PAA, Peracetic acid]
- MMV reduction factor [1]: 3.0±0.9 Log10
- dosage range for viruses (viruses): 100-40,000 ppm
- TAMC After Treatment at 500 ppm [2, 6]: 130 CFU/g
- TAMC After Treatment at 2000 ppm [2, 6]: 45 CFU/g
- TAMC After 500 ppm PAA Treatment ([2]; Whole Gland, Example 2): 10 CFU/g
- TAMC After 2000 ppm PAA Treatment ([2]; Whole Gland, Example 2): 10 CFU/g
- TAMC After Treatment at 500 ppm [2, 7]: 90 CFU/g
- TAMC After Treatment at 2000 ppm [2, 7]: 50 CFU/g
- TAMC After Treatment at 500 ppm [2, 8]: 30 CFU/g
- TAMC After Treatment at 2000 ppm [2, 8]: 10 CFU/g
- time to inactivate [3]: less than 5 minutes
- effect of PAA surface treatment in PCV-2 infectivity test [4]: no discernable effect
- EMC reduction factor ([5]; at 15 minutes): about 1.75 log10
- EMC reduction factor ([5]; calculated using the 30 min sample): about 0.8 log10
- virus in pancreas gland tissue (TEM) (virus): No virus was observed
- reduction factor in the number of vegetative bacteria (vegetative bacteria): 10^6
